Results reported in US20180077929A1, “METHODS AND SYSTEMS FOR TREATING MEDICAL DEVICES AND FLUIDS” (priority 2016, published 2018).
Where “and” joins values, the source holds several entries; their conditions need not be identical. Equal values may be shown once.

Columns and labels:
Format in all cases: biochemical
[1] = Suture testing in ethanol, cyclohexane, isopropanol with 1% CaSt; settings: for Endotoxin Detected: control suture 68.1 EU
Description: Similarly to the testing above, an absorbable suture of the same type, similarly contaminated, was exposed to CaSt in three solvents (ethanol, cyclohexane, isopropanol). The suture was then tested for LPS. […] In presence of CaSt 1% suspension (CaSt could be slightly soluble in the solvents), LPS activity decreased by 75-95%.
Sutures used were 27 inch long pieces of absorbable lactide-glycolide sutures. Endotoxin sources used were Stagnant Rain Water (SRW) and LRW (3980 EU/mL). 7 strands of suture were placed in tubing with endotoxin solution for 10 minutes at a time. The sutures were dried for 20 minutes and then placed in round bottom tubes. […] 1 suture was placed in each tube and vortexed in this solution for approximately 10 seconds. The sutures were removed and allowed to dry for 20 minutes and then placed in round bottom tubes. This was done for 6 sutures. 1 piece of suture, serving as the control, was not submerged in any solutions and placed in test tubes. 3 mL of LAL reagent water was added to each test tube, vortexed vigorously, and then placed in a hot water bath at 37° C. for 1 hour. They were then removed, vortexed vigorously, diluted, and tested on the MCS system.

[2] = Suture testing in Ethyl Acetate containing CaSt; settings: contaminated suture in Ethyl Acetate w/ 5% Calcium Stearate, 10 seconds; Ethyl Acetate alone 80.4 EU, no submersion 105.6 EU
Description: An absorbable VICRYL® (Polyglactin 910) suture (Size 1, Length: 27 in) made of a copolymer made from 90% glycolide and 10% L-lactide was exposed to a solution containing LPS (endotoxin) (9 Strands of Vicryl suture were immersed in tubing with endotoxin solution (SRW, Concentration: 3980 EU/mL) for 10 minutes at a time at ambient temperature. The sutures were air dried for 20 minutes in a vented chemical hood and then placed in round bottom and dried The suture was then immersed into Ethyl Acetate (EtAc) containing CaSt, vortexed briefly for 10 seconds, dried for 20 minutes in a vented chemical hood, and extracted in endotoxin free water at ambient temperature. The suture extracted in endotoxin free water (LRW) was then tested for LPS using the Kinetic Chromogenic Method for Endotoxin Quantitation, Charles River Laboratories, Charleston S.C.

[3] = Kinetics of removal of LPS with different agitation techniques and stearate salts; settings: for Endotoxin Detected: 5 mL SRW, baseline 1,502 EU; for Percent (%) Removed: SRW baseline 1,502 EU
Description: 5 mL of SRW was added to each of the tubes. Each solution was tested for endotoxin removal after agitation based on with sonication, vortexing, or test tube rolling. Sonication samples were sonicated at each indicated time interval for 30 seconds at a magnitude of 30. Vortex samples were vortexed at each indicated time interval for 30 seconds at 2500 RPM. Rolling samples were constantly rolling at 10 rpm. The samples were tested on the MCS for endotoxin at 1 minute, 20 minutes, 40 minutes, 60 minutes, and 80 minutes.

[4] = Wound dressing (fibrin pad) testing in cyclohexane containing CaSt; settings: dressing spiked with 8.9 EU, 15 minutes in 10 mL cyclohexane with 0.1 g CaSt
Description: A wound dressing containing dry fibrinogen and dry thrombin on an absorbable support was tested as follows. The pad was spiked with LPS and then exposed to cyclohexane containing CaSt to determine the effect on detectable LPS.
Three 1×2 inch pieces of the dressing were spiked with endotoxin resulting in 8.9 EU of LPS. The pieces were allowed to dry for 20 minutes, then placed into 50 mL polypropylene conical tubes. 7.5 mL of LAL reagent water+2.5 mL 0.25M tris buffer was added to Tube 1. 10 mL of cyclohexane with 0.1 g of CaSt was added to Tube 2. 10 mL of cyclohexane was added to Tube 3. The tubes were closed and then placed on the bottle roller rotator machine for 15 minutes so that the tube could continuously roll and the dressing was constantly in contact with liquid.
Tube 1 solution was then diluted and tested for endotoxin on the MCS system. The fibrin pad pieces from Tube 2 and Tube 3 were removed and placed in new tubes and extracted in 7.5 mL of LAL reagent water+2.5 mL 0.25M tris buffer. The solutions were then tested on the MCS system for endotoxin (LPS).

Calcium Stearate
LPS activity decreased by ([1]; CaSt 1% suspension in ethanol, cyclohexane, isopropanol): 75-95% | Change in Endotoxin Level ([1]; suture in Cyclohexane w/1% Calcium Stearate (0.0858 g) vs. control suture): −94.1% | Endotoxin Detected ([1]; suture in Cyclohexane w/1% Calcium Stearate (0.0858 g)): 4.02 EU | Change in Endotoxin Level ([1]; suture in Ethanol w/1% Calcium Stearate (0.0827 g) vs. control suture): −77.9% | Endotoxin Detected ([1]; suture in Ethanol w/1% Calcium Stearate (0.0827 g)): 15.06 EU | Change in Endotoxin Level ([1]; suture in Isopropanol w/1% Calcium Stearate (0.0841 g) vs. control suture): −75.6% | Endotoxin Detected ([1]; suture in Isopropanol w/1% Calcium Stearate (0.0841 g)): 16.59 EU | Endotoxin Detected [2]: 23.4 EU and 21.78 EU and 25.62 EU | Endotoxin Detected ([3]; Rolling, 1 minute): 1,230 EU | Percent (%) Removed ([3]; Rolling, 1 minute): 18.1% | Endotoxin Detected ([3]; Rolling, 20 minutes): 1,050 EU | Percent (%) Removed ([3]; Rolling, 20 minutes): 30.1% | Endotoxin Detected ([3]; Rolling, 40 minutes): 630 EU | Percent (%) Removed ([3]; Rolling, 40 minutes): 58.1% | Endotoxin Detected ([3]; Rolling, 60 minutes): 637 EU | Percent (%) Removed ([3]; Rolling, 60 minutes): 57.6% | Endotoxin Detected ([3]; Rolling, 80 minutes): 451 EU | Percent (%) Removed ([3]; Rolling, 80 minutes): 70% | Endotoxin Detected ([3]; Sonication, 1 minute): 270 EU | Percent (%) Removed ([3]; Sonication, 1 minute): 82% | Endotoxin Detected ([3]; Sonication, 20 minutes): 130 EU | Percent (%) Removed ([3]; Sonication, 20 minutes): 91.3% | Endotoxin Detected ([3]; Sonication, 40 minutes): 87.5 EU | Percent (%) Removed ([3]; Sonication, 40 minutes): 94.2% | Endotoxin Detected ([3]; Sonication, 60 minutes): 56.9 EU | Percent (%) Removed ([3]; Sonication, 60 minutes): 96.2% | Endotoxin Detected ([3]; Sonication, 80 minutes): 16.4 EU | Percent (%) Removed ([3]; Sonication, 80 minutes): 98.9% | Endotoxin Detected ([3]; Vortexing, 1 minute): 451 EU | Percent (%) Removed ([3]; Vortexing, 1 minute): 70% | Endotoxin Detected ([3]; Vortexing, 20 minutes): 301 EU | Percent (%) Removed ([3]; Vortexing, 20 minutes): 80% | Endotoxin Detected ([3]; Vortexing, 40 minutes): 139 EU | Percent (%) Removed ([3]; Vortexing, 40 minutes): 90.7% | Endotoxin Detected ([3]; Vortexing, 60 minutes): 173 EU | Percent (%) Removed ([3]; Vortexing, 60 minutes): 88.5% | Percent (%) Removed ([3]; Vortexing, 80 minutes): 93.1% | Endotoxin detected on Pad [4]: 1.8 EU | Percent Endotoxin detected as compared to Tube 1 [4]: 20.2% | Endotoxin detected on Pad ([4]; listed as CaSt): 2 EU
